The values below come from patent publication US20260165949A1, “COMPOSITION CONTAINING N-NONYLDEOXYNOJIRIMYCIN FOR SUPPRESSION, ALLEVIATION, PALLIATION, OR TREATMENT OF SKIN ITCHING” (CHA UNIVERSITY INDUSTRY-ACADEMIC COOPERATION FOUNDATION, priority 2022, published 2026).

The subject of one assay is RBL-2H3 cells. Briefly: β-hexosaminidase release induced by PMA/A23187 stimulation (degranulation) in RBL-2H3 cells. It counts as cell-based. How it is done: (§1) Mast cells (RBL-2H3 cells) were purchased from ATCC (American Type Culture Collection, USA). RBL-2H3 cells were cultured in a DMEM medium (Dulbecco's Modified Eagle's medium (high glucose), Hyclone, USA) containing 10% fetal bovine serum (FBS) and 1% penicillin/streptomycin at 37° C. in a 5% CO2 incubator.
In order to evaluate the inhibitory effects against degranulation of RBL-2H3 cells, β-hexosaminidase release was measured for various compounds. Specifically, the cultured RBL-2H3 cells were seeded at 2×10^5 cells/well in each well of a 24-well plate for cell culture and cultured in a DMEM medium containing 10% FBS and 1% penicillin/streptomycin. After 24 hours, the existing medium was removed. The cells were washed twice with an extracellular buffer (5 mM KCl, 119 mM NaCl, 25 mM PIPES, 0.4 mM MgCl2, 1 mM CaCl2), 40 mM NaOH, 5.6 mM glucose, 0.1% BSA, pH 7.2) and the medium was replaced with the extracellular buffer. […] After the reaction was terminated by adding a stop solution (0.1 M carbonate buffer, pH 10), the absorbance was measured at 405 nm using a microplate reader.
The β-hexosaminidase release was measured in the same manner as in Example 2, except that N-nonyldeoxynojirimycin was treated at various concentrations (1 to 200 μM).

Assay [1] has as its system PGE2 release in RBL-2H3 cells. Nature of the assay: PGE2 release induced by PMA/A23187 stimulation in RBL-2H3 cells (ELISA). It counts as cell-based. The conditions noted are these: 1 to 40 μM; 50 nM PMA and 1 μM A23187 for 30 minutes; FIG. 3. The method, then: as §1
In order to evaluate the inhibitory effects against […] (PGE2) release of RBL-2H3 cells according to the treatment of N-nonyldeoxynojirimycin, an enzyme-linked immunosorbent assay (ELISA) was performed using a PGE2 ELISA kit (R&D Systems, USA). Specifically, the cultured RBL-2H3 cells were seeded at 1×10^6 cells/well in each well of a 6-well plate for cell culture and cultured in the same manner as in Example 2. After 24 hours, the existing medium was removed. The cells were washed with PBS and a DMEM medium without FBS was added thereto. After N-nonyldeoxynojirimycin was treated at various concentrations (1 to 40 μM), the cells were cultured for 1 hour at 37° C. in a 5% CO2 incubator. The cells were treated with 50 nM of PMA and 1 μM of A23187 and incubated for an additional 30 minutes. The cell culture mixture was collected in a 1.5 ml tube and then centrifuged at 2,000 rcf. The supernatant thereof was subject to the ELISA analysis using a PGE2 ELISA kit (R&D Systems, USA). After completion of the reaction, the absorbance was measured at 450 nm using a microplate reader.

The subject of assay [2] is IL-6 release in HaCaT cells. Briefly: IL-6 release induced by TNF-α/IFN-γ stimulation in HaCaT cells (ELISA). Format: cell-based. As to conditions: various concentrations; TNF-α and IFN-γ 10 ng/ml each, 24 hours; FIG. 4. The method, then: (§2) Epidermal cells (HaCaT cells) were purchased from Thermo Fisher Scientific (USA). HaCaT cells were cultured in a DMEM medium (Dulbecco's Modified Eagle's medium (high glucose), Hyclone, USA) containing 10% fetal bovine serum (FBS) and 1% penicillin/streptomycin at 37° C. in a 5% CO2 incubator.
(§3) In order to evaluate the inhibitory effects against IL-6, CCL17, and CCL22 release induced by TNF-α and IFN-γ stimulation in HaCaT cells, an epidermal cell model for the itching associated with the skin barrier, we used a IL-6 ELISA kit (Abcam, UK), a CCL17 ELISA kit (R&D Systems, USA), and a CCL22 ELISA kit (R&D Systems, USA). HaCaT cells were seeded at 1×10^6 cells/well in each well of a coated 6-well plate for cell culture and cultured in a DMEM medium containing 10% FBS and 1% antibiotics (penicillin/streptomycin). After 24 hours, the existing medium was removed. The cells were washed with PBS and a DMEM medium without FBS was added thereto. After N-nonyldeoxynojirimycin was treated at various concentrations, the cells were cultured for 1 hour at 37° C. in a 5% CO2 incubator. The cells were treated with TNF-α and IFN-γ at 10 ng/ml each and then incubated for an additional 24 hours. The cell culture mixture was collected in a 1.5 ml tube and then centrifuged at 2,000 rcf. […] After completion of the reaction, the absorbance was measured at 450 nm using a microplate reader. […]
On the technique in general: ELISA stands for enzyme-linked immunosorbent assay.

Assay [3] relates to CCL17 release in HaCaT cells. Nature of the assay: CCL17 release induced by TNF-α/IFN-γ stimulation in HaCaT cells (ELISA). As to conditions: various concentrations; TNF-α and IFN-γ 10 ng/ml each, 24 hours; FIG. 5. Format: cell-based. How it is done: as §2, §3
Assay [4] has as its system CCL22 release in HaCaT cells. Briefly: CCL22 release induced by TNF-α/IFN-γ stimulation in HaCaT cells (ELISA). Format: cell-based. The conditions noted are these: various concentrations; TNF-α and IFN-γ 10 ng/ml each, 24 hours; FIG. 6. How it is done: as §2, §3
For a further assay, the system named is glucosidase. As to conditions: cited from earlier work.
Another assay concerns hepatic glycogenolysis. The conditions noted are these: in vivo; cited from earlier work.

Turning to `CCCCCCCCCN1C[C@H](O)[C@@H](O)[C@H](O)[C@H]1CO` [N-nonyldeoxynojirimycin], the “inhibitory effect against β-hexosaminidase release according to treatment concentration” value in the assay with RBL-2H3 cells (1 to 200 μM, PMA/A23187 stimulation, FIG. 2) is recorded as “inhibits the β-hexosaminidase release in a concentration-dependent manner”. Also, in the assay with RBL-2H3 cells (test material 20 μM, 1 hour, then 50 nM PMA and 1 μM A23187 for 30 minutes, FIG. 1), the “inhibitory effect against β-hexosaminidase release” value is “remarkably inhibited the β-hexosaminidase release compared to other alkaloid analogues”. Moreover, the “inhibitory effect against PGE2 release” value in assay [1] is reported as “inhibited the PGE2 release in a concentration-dependent manner”. Moreover, in assay [2], the “inhibitory effect against IL-6 release” value is “inhibited the IL-6, CCL17, and CCL22 releases”. In addition, the “inhibitory effect against CCL17 release” value in assay [3] was “inhibited the IL-6, CCL17, and CCL22 releases”. The “inhibitory effect against CCL22 release” value in assay [4] was “inhibited the IL-6, CCL17, and CCL22 releases”. Also, the glucosidase inhibitory activity entry with glucosidase was “has a glucosidase inhibitory activity”. The “inhibition of hepatic glycogenolysis” value with hepatic glycogenolysis is “known to inhibit hepatic glycogenolysis in vivo”.
